Measurements taken from US9260382B2, “Methods of reducing virulence in bacteria” (priority 2010, dated 2016).
Several values for one entry are separate records, joined by “and”; a condition that tells them apart may be missing. Equal entries are not always repeated.

Experiments:
rsmB RNA = assay: qRT-PCR relative mRNA level of rsmB; type: cell-based, Dickeya dadantii 3937; conditions: 0.1 mM in MM
Description: Bacterial strains were grown in MM. Total RNA from the bacterial cells was isolated by using the TRI reagent method (Sigma, Mo.) and treated with Turbo DNA-free DNase kits (Ambion, Tex.) as described (Peng et al., 2006). An iScript cDNA Synthesis Kit (Bio-Rad, CA) was used to synthesize cDNA from 0.5 μg of treated total RNA. The Real Master Mix (Eppendorf, Westbury, N.Y.) was used for qRT-PCR reaction to quantify the cDNA level of target genes in different samples. The rplU was used as the endogenous control for data analysis. qRT-PCR data were analyzed using Relative Expression Software Tool as described (Pfaffl, M. W., Horgan, G. W., and Dempfle, L. (2002) Relative expression software tool (REST) for group-wise comparison and statistical analysis of relative expression results in real-time PCR. Nucleic Acids Res 30:e36.).

hrpA promoter (T3SS) [1] = assay: hrpA promoter-probe phrpA in Erwinia amylovora 273, flow cytometry; type: cell-based; conditions: Ea273 (phrpA), HIM + 100 μM compound
Outline: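 Erwinia amylovora 273 carrying an hrpA promoter–GFP fusion (pPROBE-NT) was grown in hrp-inducing medium with 100 μM compound or DMSO. Promoter activity read as GFP intensity by flow cytometry at 6 h and 9 h.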

hrpN promoter (T3SS) = assay: GFP reporter plasmid phrpN, flow cytometry of hrpN promoter activity; type: cell-based, Dickeya dadantii 3937; conditions: MM + 0.1 mM compound
Description: (§1) FACS analysis of promoter activity of dspE, hrpA, hrpL, hrpN, and hrpS was carried out as described (Peng et al., 2006). Briefly, the wild-type Ech3937 and the mutant strains carrying the promoter reporter plasmid were grown on LB broth at 28° C. overnight and transferred to appropriate media. For FACS analysis, samples were collected by centrifugation, washed with 1× phosphate buffer saline (PBS) at 13,000 rpm for 1 min, and re-suspended in 1×PBS to ca 10^6 CFU/ml prior to being run in a FACS Calibur flow cytometer (BD Biosciences, CA). Three replicates were performed for each treatment.
Phenolic compounds constitute an important class of organic substances produced by plants. The phenolic compound SA is a signaling molecule that plays a role in host defenses. OCA and TCA are the biosynthetic precursors of SA and are also reported to induce the expression of defense-related genes in plants. OCA, TCA, and SA were examined to elucidate their effects on the expression of T3SS genes. The expression of the T3SS gene hrpN was examined in MM and MM supplemented with OCA, TCA, and SA, at concentrations of 0.05, 0.1, and 0.2 mM, respectively. FIGS. 2A and 2B show the promoter activities of hrpN in Dickeya dadantii 3937 (Ech3937) grown in MM and MM supplemented with 0.05, 0.1, and 0.2 mM OCA, TCA, and SA at 12 h (FIG. 2A) and 24 h (FIG. 2B) post-inoculation. GFP intensity was determined on gated populations of bacterial cells by flow cytometry and analyzed with the Cell Quest software (BD Biosciences, San Jose, Calif.). The growth of Ech3937 in MM supplemented with different concentrations of OCA, TCA and SA was recorded. Compared with MM alone, the average GFP fluorescence intensity of bacterial cells of Ech3937 (phrpN) was increased approximately 4-fold when 0.05 mM of OCA and TCA were added to the medium (FIGS. 2A, 2B).

[2] = tested on: pPROBE-AT vector without promoter insert; assay: pPROBE-AT vector control, flow cytometry; type: cell-based, Dickeya dadantii 3937; conditions: Ech3937 (pPROBE-AT), MM + 0.1 mM compound
Description: as §1

hrpA promoter (T3SS) [3] = assay: GFP reporter plasmid phrpA, flow cytometry (FACS) of hrpA promoter activity; type: cell-based, Dickeya dadantii 3937; conditions: for GFP Mean Fluorescence Intensity, hrpA promoter: MM + 0.1 mM compound
Outline: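 D. dadantii (Ech) 3937 carrying the phrpA promoter–GFP transcriptional fusion was grown in T3SS minimal medium with 100 μM compound, starting from an inoculum of OD600 1.0. GFP was read by flow cytometry at 12 and 24 h. Values are mean fluorescence intensity of three replicates ± SD, with compound-free MM as control.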

O=C(O)/C=C/c1ccc(O)cc1 [Compound 004, para-coumaric acid]
rsmB mRNA compared with MM alone, in words (rsmB RNA): No significant difference | Avg MFI ± SD, hrpA expression (hrpA promoter (T3SS) [1]; 6 h): 920.6 ± 29.1 | Avg MFI ± SD, hrpA expression (hrpA promoter (T3SS) [1]; 9 h): 993.8 ± 43.3 | GFP Mean Fluorescence Intensity, hrpN promoter (hrpN promoter (T3SS); Ech3937 (phrpN), 12 h, listed as PCA): 6.8 ± 0.8 and 4.3 ± 0.1 | GFP Mean Fluorescence Intensity, hrpN promoter (hrpN promoter (T3SS); Ech3937 (phrpN), 24 h, listed as PCA): 8.8 ± 2.1 | GFP Mean Fluorescence Intensity, hrpN promoter (hrpN promoter (T3SS); hrpL mutant WPP96 (phrpN), 12 h): 3.0 ± 0.0 | GFP Mean Fluorescence Intensity, hrpN promoter (hrpN promoter (T3SS); hrpL mutant WPP96 (phrpN), 24 h): 4.3 ± 0.1 | GFP Mean Fluorescence Intensity, hrpN promoter (hrpN promoter (T3SS); hrpS mutant WPP90 (phrpN), 12 h): 3.5 ± 0.1 | GFP Mean Fluorescence Intensity, hrpN promoter (hrpN promoter (T3SS); hrpS mutant WPP90 (phrpN), 24 h): 5.1 ± 0.1 | GFP Mean Fluorescence Intensity, hrpN promoter (hrpN promoter (T3SS); hrpX mutant WPP67 (phrpN), 12 h): 3.5 ± 0.2 | GFP Mean Fluorescence Intensity, hrpN promoter (hrpN promoter (T3SS); hrpX mutant WPP67 (phrpN), 24 h): 6.3 ± 0.7 | GFP Mean Fluorescence Intensity, hrpN promoter (hrpN promoter (T3SS); hrpY mutant WPP92 (phrpN), 12 h): 3.6 ± 0.1 | GFP Mean Fluorescence Intensity, hrpN promoter (hrpN promoter (T3SS); hrpY mutant WPP92 (phrpN), 24 h): 5.5 ± 0.3 | GFP Mean Fluorescence Intensity, vector control ([2]; 12 h, listed as PCA): 2.2 ± 0.2 and 2.3 ± 0.1 | GFP Mean Fluorescence Intensity, vector control ([2]; 24 h): 4.9 ± 0.1 | inhibitory effect on hrpA at 10 μM, in words (hrpA promoter (T3SS) [3]; 10 μM added to T3SS-inducing minimal medium (MM)): No inhibitory effect | GFP Mean Fluorescence Intensity, hrpA promoter (hrpA promoter (T3SS) [3]; Ech3937 (phrpA), 12 h, listed as PCA): 9.2 ± 0.4 | Mean Fluorescence Intensity of GFP (hrpA, phrpA) (hrpA promoter (T3SS) [3]; Trial 1, MM supplemented with compound at 100 μM): 9.4 ± 0.1 | Mean Fluorescence Intensity of GFP (hrpA, phrpA) (hrpA promoter (T3SS) [3]; Trial 2, MM supplemented with compound at 100 μM): 9.3 ± 0.2 | effect on GFP fluorescence intensity of Ech3937 (phrpA), in words (hrpA promoter (T3SS) [3]; concentrations at 0.001, 0.005 and 0.01): did not result in substantial reduction of GFP fluorescence intensity | GFP Mean Fluorescence Intensity, hrpA promoter (hrpA promoter (T3SS) [3]; hrpL mutant WPP96 (phrpA), 12 h): 7.3 ± 0.1 | GFP Mean Fluorescence Intensity, hrpA promoter (hrpA promoter (T3SS) [3]; hrpL mutant WPP96 (phrpA), 24 h): 9.0 ± 1.6 | GFP Mean Fluorescence Intensity, hrpA promoter (hrpA promoter (T3SS) [3]; hrpS mutant WPP90 (phrpA), 12 h): 7.9 ± 0.2 | GFP Mean Fluorescence Intensity, hrpA promoter (hrpA promoter (T3SS) [3]; hrpS mutant WPP90 (phrpA), 24 h): 9.3 ± 0.2 | GFP Mean Fluorescence Intensity, hrpA promoter (hrpA promoter (T3SS) [3]; hrpX mutant WPP67 (phrpA), 12 h): 7.9 ± 0.2 | GFP Mean Fluorescence Intensity, hrpA promoter (hrpA promoter (T3SS) [3]; hrpX mutant WPP67 (phrpA), 24 h): 9.0 ± 1.3 | GFP Mean Fluorescence Intensity, hrpA promoter (hrpA promoter (T3SS) [3]; hrpY mutant WPP92 (phrpA), 12 h): 6.9 ± 0.1 | GFP Mean Fluorescence Intensity, hrpA promoter (hrpA promoter (T3SS) [3]; hrpY mutant WPP92 (phrpA), 24 h): 9.4 ± 0.7
